For experiment [1], the system named is Na^+ -independent Cl^- /HCO3^- exchanger. Put plainly: Activity of the Na^+ -independent Cl^- /HCO3^- exchanger in ventricular cardiomyocytes isolated from rat heart (acetate method, carboxy-SNARF-1 intracellular pH). The format is cell-based. Here is the method:
Example A: MEASUREMENT OF THE ACTIVITY OF THE Na^+ -INDEPENDENT Cl^- /HCO3^- EXCHANGER IN VENTRICULAR CARDIOMYOCYTES ISOLATED FROM RAT HEART
The study is performed on ventricular cardiomyocytes isolated from rat heart by enzymatic dissociation. The intracellular pH of a single cell is measured by the fluorescent label carboxy-SNARF-1 whose fluorescence depends on its state of protonation (Buckler K. J. et al. Pflugers Archiv, 1990, 417: 234-239). The cells are "charged" beforehand with SNARF-1-AM (esterified and permeating form of the label) and the intracellular fluorescence of SNARF is monitored using an inverted microscope equipped with epifluorescence. The measurements are converted into pH using a calibration file.
The activity of the Na^+ -independent Cl^- /HCO3^- exchanger is studied after activation by induction of an alkaline charge of the cells by the acetate method (Roos A et al. Physiol. Rev., 1981, 61: 296-434). […]
The compounds according to the invention are used at concentrations of 10^-11 to 10^-5 M and their IC50 (50% inhibitory concentration) is calculated for each ion transporter. In parallel, the effects of the molecules on the intracellular intrinsic buffer power and the intracellular resting pH are determined.

Another experiment has as its system isolated rat hearts. Put plainly: Cardiovascular study: arrhythmias in isolated rat hearts (Langendorff infusion), ischaemia-reinfusion. The settings on record: for inhibition at 0.1 µM: Rattus norvegicus, n=6, preliminary. How it is done:
Example F: CARDIOVASCULAR STUDY
The compounds are tested at a concentration of 0.1 μM in a solution of DMSO in Krebs buffer (0.01% v/v) on arrhythmias. 6 isolated rat hearts were used for the test compound and 6 for the control. An infusion by the Langendorff method is performed (Rees S. A. and Curtis M.J.J. Card. Pharmacol. 1995, 26: 280-288).

The structures appear in SMILES notation. Where two headings read alike, the source gives them in different places.

As for `Cc1cc(C)c(NC(=O)C2(C)CCc3c(C)c(O)c(C)c(C)c3O2)cc1C` (centres unmarked) [Example 14, N-(2,4,5-trimethylphenyl)-(6-hydroxy-3,4-dihydro-2,5,7,8-tetramethyl-2H[1]-benzopyran-2-yl)carboxamide], the “selectivity of inhibition of the Na^+ -independent Cl^- /HCO3^- exchanger” value in experiment [1] (Na^+ /H^+ exchange and Na^+ /HCO3^- cotransport also studied (ammonium method)) is “selective inhibitor”. Besides, the IC50 in experiment [1] (activation by alkaline charge (acetate method), 10^-11 to 10^-5 M, read-out: IC50 (50% inhibitory concentration), Na^+ -independent Cl^- /HCO3^- exchanger) was roughly 100 pM. Further, the “activity on the cardiovascular system” value in the experiment with isolated rat hearts (0.1 μM, isolated rat heart) is reported as “possesses cardioprotective activity”. Also, the inhibition at 0.1 µM in the experiment with isolated rat hearts (in comparison with control hearts, read-out: reduction of the incidence of ventricular fibrillation observed during the ischaemia) amounted to 50%; with isolated rat hearts (read-out: reduction of the incidence of ventricular fibrillation observed during reinfusion), 50%.

(Values after US5703118A, “Use of benzopyran derivatives for the treatment of pathologies associated with the NA^+ -independent CI-/HCO3 -exchanger” (Adir et Compagnie, priority 1995, dated 1997).)
